The target in this assay is T1, Protoporphyrinogen IX oxidase (Zea mays, UniProt Q9FYV8).
T1 sequence (Q9FYV8 whole entry): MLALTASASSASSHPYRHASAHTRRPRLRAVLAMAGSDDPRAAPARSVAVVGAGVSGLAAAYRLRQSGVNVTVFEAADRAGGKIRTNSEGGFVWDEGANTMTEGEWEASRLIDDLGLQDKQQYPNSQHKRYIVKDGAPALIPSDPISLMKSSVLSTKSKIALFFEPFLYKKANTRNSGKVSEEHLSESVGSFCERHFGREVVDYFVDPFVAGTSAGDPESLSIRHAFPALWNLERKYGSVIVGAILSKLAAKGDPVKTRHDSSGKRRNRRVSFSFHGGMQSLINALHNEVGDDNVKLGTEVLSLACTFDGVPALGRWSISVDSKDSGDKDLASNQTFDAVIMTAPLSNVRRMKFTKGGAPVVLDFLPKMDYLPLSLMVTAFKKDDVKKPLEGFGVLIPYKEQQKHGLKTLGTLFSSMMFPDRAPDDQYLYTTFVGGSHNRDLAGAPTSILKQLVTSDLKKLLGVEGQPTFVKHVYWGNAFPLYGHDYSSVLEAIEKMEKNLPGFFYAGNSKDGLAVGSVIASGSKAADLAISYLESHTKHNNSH
The experiment in a line: Inhibition of Zea mays cv. Anjou (maize) plastid Protoporphyrinogen IX oxidase assessed as inhibition of protoporphyrin IX by fluorescence spectrophotometry. To be noted: read-out: pI50 (converted).

Take `S=c1n(-c2ccc(Br)cc2)c(=S)n2n1CCC2`: the IC50 is 28.8 nM. For `S=c1n(-c2ccc(Br)cc2)c(=S)n2n1CCCCC2` the value was 70.8 nM; for `S=c1s/c(=N\c2ccc(Br)cc2)n2n1CCC2`, 324 nM; for `O=c1n(-c2ccc(Br)cc2)c(=O)n2n1CCCC2`, 339 nM. For `O=c1n(-c2ccc(Br)cc2)c(=S)n2n1CCCC2` the value was 12.9 nM.

For the compound `O=c1n(-c2ccc(Br)cc2)c(=O)n2n1CCCCC2`, the IC50 was 2510 nM. To `O=c1n(-c2ccc(Br)cc2)c(=S)n2n1CCCCC2` belongs 129 nM; to `O=C1C2=C(CCCC2)C(=O)N1c1ccc(Br)cc1`, 50.1 nM. To `O=c1s/c(=N\c2ccc(Br)cc2)n2n1CCC2` belongs 3630 nM; to `O=c1n(-c2ccc(Br)cc2)c(=S)n2n1CCC2`, 53.7 nM. For `O=c1n(-c2ccc(Br)cc2)c(=O)n2n1CCC2` the value was 617 nM.

The values above are taken from ChEMBL document CHEMBL3044890, “Peroxidizing Phytotoxicities of 1, 2-Alkylene-1, 2, 4-triazolidines and 3, 4-Alkylene-1, 3, 4-thiadiazolidines” (J Pestic Sci, 1996).
